Assay results taken from ChEMBL document CHEMBL4828707, “Discovery of phenyl-linked symmetric small molecules as inhibitors of the programmed cell death-1/programmed cell death-ligand 1 interaction” (Eur J Med Chem, 2021).

Legend:
[1] = biological target: T1, Programmed cell death protein 1/Programmed cell death 1 ligand 1 (Homo sapiens, UniProt Q15116+Q9NZQ7); experiment: (§1) Inhibition of Tag2-PD1/Tag1-PD-L1 (unknown origin) protein-protein interaction preincubated for 15 mins followed by addition of anti-Tag1-Eu3+ and anti-Tag2-XL665 measured after 2 hrs in dark by HTRF assay; format: protein-complex assay
T1 sequence (Q15116 whole entry): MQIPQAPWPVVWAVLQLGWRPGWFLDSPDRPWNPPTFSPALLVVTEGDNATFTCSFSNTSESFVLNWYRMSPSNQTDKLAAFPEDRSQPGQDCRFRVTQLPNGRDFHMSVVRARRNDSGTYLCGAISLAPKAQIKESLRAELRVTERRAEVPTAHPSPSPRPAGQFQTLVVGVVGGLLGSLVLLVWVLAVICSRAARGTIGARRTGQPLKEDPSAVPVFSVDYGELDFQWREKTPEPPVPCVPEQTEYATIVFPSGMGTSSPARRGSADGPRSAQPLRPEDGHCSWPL
T1 sequence (Q9NZQ7 whole entry): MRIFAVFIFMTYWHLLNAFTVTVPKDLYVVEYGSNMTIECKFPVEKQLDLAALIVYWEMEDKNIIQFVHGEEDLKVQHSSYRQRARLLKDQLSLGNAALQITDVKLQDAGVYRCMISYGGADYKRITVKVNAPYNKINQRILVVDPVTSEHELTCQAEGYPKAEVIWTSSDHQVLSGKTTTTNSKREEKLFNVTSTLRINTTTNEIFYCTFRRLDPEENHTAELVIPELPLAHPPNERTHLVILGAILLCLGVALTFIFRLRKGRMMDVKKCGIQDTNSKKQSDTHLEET

[2] = biological target: T2, Programmed cell death protein 1/Programmed cell death 1 ligand 1 (Homo sapiens, UniProt Q9NZQ7); experiment: as §1; format: protein-complex assay
T2 sequence (Q15116 whole entry): as the sequence (Q15116 whole entry) above
T2 sequence (Q9NZQ7 whole entry): as the sequence (Q9NZQ7 whole entry) above

[3] = biological target: hERG (KCNH2) (Homo sapiens, UniProt Q12809); experiment: Inhibition of human ERG expressed in HEK293 cells at 10 uM measured by whole cell patch-clamp assay; format: cell-based; conditions: HEK293 cells that express hERG
hERG (KCNH2), sequence (Q12809 whole entry): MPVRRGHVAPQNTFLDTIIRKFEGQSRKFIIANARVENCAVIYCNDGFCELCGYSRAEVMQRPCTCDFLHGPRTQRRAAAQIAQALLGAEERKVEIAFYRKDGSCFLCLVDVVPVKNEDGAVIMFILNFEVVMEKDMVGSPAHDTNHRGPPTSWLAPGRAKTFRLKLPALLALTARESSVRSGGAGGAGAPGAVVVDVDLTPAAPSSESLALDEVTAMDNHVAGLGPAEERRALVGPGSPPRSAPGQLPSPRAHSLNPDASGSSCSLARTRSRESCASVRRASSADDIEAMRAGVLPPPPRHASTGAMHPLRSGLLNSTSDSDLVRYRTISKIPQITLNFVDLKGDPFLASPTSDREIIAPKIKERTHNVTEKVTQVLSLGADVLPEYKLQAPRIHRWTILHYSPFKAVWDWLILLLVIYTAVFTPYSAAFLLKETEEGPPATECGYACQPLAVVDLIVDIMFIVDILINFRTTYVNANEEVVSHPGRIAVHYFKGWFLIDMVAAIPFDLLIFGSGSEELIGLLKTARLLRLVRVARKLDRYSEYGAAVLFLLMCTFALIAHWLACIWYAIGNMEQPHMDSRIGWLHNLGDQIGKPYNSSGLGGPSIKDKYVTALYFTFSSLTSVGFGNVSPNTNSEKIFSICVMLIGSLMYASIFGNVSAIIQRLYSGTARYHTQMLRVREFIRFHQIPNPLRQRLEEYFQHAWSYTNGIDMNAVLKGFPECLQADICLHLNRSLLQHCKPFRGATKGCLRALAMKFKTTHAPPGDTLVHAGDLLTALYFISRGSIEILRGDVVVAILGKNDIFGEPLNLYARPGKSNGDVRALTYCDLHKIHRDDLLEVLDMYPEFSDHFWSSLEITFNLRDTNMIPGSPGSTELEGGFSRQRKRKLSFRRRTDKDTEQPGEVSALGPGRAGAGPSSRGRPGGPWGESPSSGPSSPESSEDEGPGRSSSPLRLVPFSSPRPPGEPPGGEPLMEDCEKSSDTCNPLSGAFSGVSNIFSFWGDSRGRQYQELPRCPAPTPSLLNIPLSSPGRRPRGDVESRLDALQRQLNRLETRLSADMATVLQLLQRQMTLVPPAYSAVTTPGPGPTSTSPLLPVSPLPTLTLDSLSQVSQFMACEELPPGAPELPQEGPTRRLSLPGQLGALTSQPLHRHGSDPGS

[4] = Cytotoxicity against human PBMC at 3 uM measured after 48 hrs by CCK8 assay
[5] = biological target: T2, Programmed cell death protein 1/Programmed cell death 1 ligand 1; experiment: Inhibition of PD1/PDL1 protein-protein interaction in human Jurkat cells overexpressing PD1 co-cultured with human Hep3B cells expressing PDL1 protein assessed as increase of TCR-mediated luminiscence measured after 6 hrs by NFAT reporter assay; format: cell-based
[6] = biological target: T1, Programmed cell death protein 1/Programmed cell death 1 ligand 1; conditions: time 6.0 hrs
[7] = tested on: L02; experiment: Cytotoxicity against human HL7702 cells at 2 to 10 uM measured after 48 hrs by CCK8 assay; format: cell-based; conditions: l02, 48 h, dose 2-10 µM
[8] = Cytotoxicity against human HPDE6c7 cells at 2 to 10 uM measured after 48 hrs by CCK8 assay; format: cell-based; conditions: hpde6c7, 48 h, dose 2-10 µM

Compound: Cc1c(-c2ccc3c(c2)NCC(=O)N(CCO)C3)cccc1-c1ccc2c(c1)OCCO2
- IC50 [1]: Not Active

Compound: O=C(c1ccc(CNCCO)cc1)n1ccc2c(-c3ccc4c(c3)OCCO4)cccc21
- IC50 [2]: > 1000 nM

Compound: COc1cc(-c2cccc(-c3ccc4c(c3)OCCO4)c2C)ccc1CNCCO
- inhibition at 10 µM [3]: 4.71%
- IC50 [1]: Not Active

Compound: Cc1c(-c2ccc3c(c2)OCCO3)cccc1N1CCN(c2cccc(CNCCO)c2)C1=O
- IC50 [2]: > 1000 nM

Compound: O=C(c1ccc(CNCCO)cc1)n1ccc2c(-c3cccc4c3ccn4C(=O)c3ccc(CNCCO)cc3)cccc21
- IC50 [2]: 309 nM

Compound: Cc1c(-c2ccc(CNCCO)cn2)cccc1-c1cccc(-c2ccc(CNCCO)cn2)c1C
- IC50 [2]: > 1000 nM

Compound: O=C(c1ccc(CNCCO)cc1)N1CCCc2c(-c3ccc4c(c3)OCCO4)cccc21
- IC50 [2]: > 1000 nM

Compound: Cc1c(-c2ccc3c(c2)OC(=O)N(CC(=O)O)C3)cccc1-c1ccc2c(c1)OCCO2
- IC50 [1]: Not Active

Compound: Cc1c(-c2ccc3c(c2)OCCO3)cccc1N1CCN(c2ncc(CNCCO)s2)C1=O
- IC50 [2]: > 1000 nM

Compound: Cc1c(-c2ccc3c(c2)OCCO3)cccc1N1CCN(c2ccc(CNCCO)cn2)C1=O
- IC50 [2]: > 1000 nM

Compound: Cc1c(-c2ccc3c(c2)OCCO3)cccc1-c1ccc(CNCCO)s1
- IC50 [1]: Not Active

Compound: Cc1c(-c2ccc3c(c2)OCCO3)cccc1N1Cc2cc(CNCCO)ccc2C1=O
- IC50 [2]: > 1000 nM

Compound: COc1cc(-c2cccc(-c3cccc(-c4ccc(CNC5CCOCC5)c(OC)c4)c3C)c2C)ccc1CNC1CCOCC1
- IC50 [2]: 34.4 nM

Compound: COc1cc(-c2cccc(-c3cccc(-c4ccc(CO)c(OC)c4)c3C)c2C)ccc1CO
- IC50 [2]: 481 nM

Compound: Cc1c(-c2ccc3c(c2)OCCO3)cccc1-c1ccc(CNCCO)cn1
- IC50 [2]: 19.6 nM

Compound: COc1cc(-c2cccc(-c3cccc(-c4ccc(CNC(CO)C(=O)O)c(OC)c4)c3C)c2C)ccc1CNC(CO)C(=O)O (stereo not drawn)
- inhibition at 10 µM [3]: -0.67%
- Activity [4]: Non-Toxic
- EC50 [5]: 775 nM
- RLU [6]: 30600
- Activity [7]: Non-Toxic
- IC50 [2]: 3.9 nM
- Activity [8]: Non-Toxic

Compound: Cc1c(NS(=O)(=O)c2ccc(CNCCO)cc2)cccc1-c1ccc2c(c1)OCCO2
- IC50 [2]: > 1000 nM

Compound: COc1cc(-c2cccc(-c3cccc(-c4ccc(CNCC5CCC(=O)N5)c(OC)c4)c3C)c2C)ccc1CNCC1CCC(=O)N1 (stereo not drawn)
- IC50 [2]: 139 nM

Compound: Cc1c(-c2ccc3c(c2)CCCN(CCO)C3)cccc1-c1ccc2c(c1)OCCO2
- IC50 [1]: Not Active

Compound: COc1cc(-c2cccc(-c3cccc(-c4ccc(CNC(CO)CO)c(OC)c4)c3C)c2C)ccc1CO
- IC50 [2]: 48.7 nM

Compound: COc1cc(-c2cccc(-c3cccc(-c4ccc(CN5CC(C(=O)O)C5)c(OC)c4)c3C)c2C)ccc1CN1CC(C(=O)O)C1
- inhibition at 10 µM [3]: 3.93%
- Activity [4]: Non-Toxic
- EC50 [5]: 104 nM
- RLU [6]: 35800
- Activity [7]: Non-Toxic
- IC50 [2]: 4.23 nM
- Activity [8]: Non-Toxic

Compound: COc1cc(-c2cccc(-c3cccc(-c4ccc(CNCC(O)C(=O)O)c(OC)c4)c3C)c2C)ccc1CNCC(O)C(=O)O (stereo not drawn)
- inhibition at 10 µM [3]: 7.72%
- Activity [4]: Non-Toxic
- EC50 [5]: 376 nM
- RLU [6]: 27000
- Activity [7]: Non-Toxic
- IC50 [2]: 4.01 nM
- Activity [8]: Non-Toxic

Compound: Cc1c(-c2ccc3c(c2)OCCO3)cccc1N1CCN(c2cccc(CNCCO)n2)C1=O
- IC50 [2]: > 1000 nM

Compound: Cc1c(-c2ccc3c(c2)OCCO3)cccc1N(C)C(=O)c1ccc(CNCCO)cn1
- IC50 [2]: 764 nM

Compound: COc1cc(-c2cccc(-c3cccc(-c4ccc(CNC5CCCC5O)c(OC)c4)c3C)c2C)ccc1CNC1CCCC1O (stereo not drawn)
- IC50 [2]: 36.4 nM

Compound: Cc1c(Nc2cc(-c3ccc(CNCCO)cc3)ccn2)cccc1-c1ccc2c(c1)OCCO2
- IC50 [2]: > 1000 nM

Compound: Cc1c(-c2ccc3c(c2)OCCO3)cccc1-c1ccc(CNCCO)o1
- IC50 [2]: 191 nM

Compound: COc1cc(-c2cccc(-c3cccc(-c4ccc(CNC(CO)CO)c(OC)c4)c3C)c2C)ccc1CNC(CO)CO
- IC50 [2]: > 1000 nM

Compound: Cc1c(NC(=O)c2ccc(CNCCO)cn2)cccc1-c1ccc2c(c1)OCCO2
- IC50 [2]: 5.04 nM

Compound: O=C(c1ccc(CNCCO)cc1)N1CCc2c(-c3cccc4c3CCN4C(=O)c3ccc(CNCCO)cc3)cccc21
- IC50 [2]: 18.6 nM

Compound: Cc1c(-c2ccc3c(c2)OCCO3)cccc1-c1nnc(-c2ccc(CNCCO)cc2)o1
- IC50 [2]: > 1000 nM

Compound: Cc1c(-c2ccc3c(c2)OCCO3)cccc1N1CCN(c2ccc(CNCCO)cc2)C1=O
- IC50 [2]: > 1000 nM

Compound: COc1cc(-c2cccc(-c3cccc(-c4ccc(CN5CCCCC5C(=O)O)c(OC)c4)c3C)c2C)ccc1CO (stereo not drawn)
- IC50 [2]: 472 nM

Compound: Cc1c(NC(=O)c2ccc(CNCCO)nc2)cccc1-c1ccc2c(c1)OCCO2
- IC50 [2]: > 1000 nM

Compound: O=C(c1ccc(CNCCO)cc1)N1CCc2c(-c3ccc4c(c3)OCCO4)cccc21
- IC50 [2]: 150 nM

Compound: Cc1c(Nc2cccc(-c3ccc(CNCCO)cc3)n2)cccc1-c1ccc2c(c1)OCCO2
- IC50 [2]: > 1000 nM

Compound: Cc1c(-c2ccc(CNCCO)cc2)cccc1-c1ccc2c(c1)OCCO2
- inhibition at 10 µM [3]: 98%
- IC50 [2]: 16.2 nM

Compound: Cc1c(-c2ccc(CNCCO)cc2)cccc1-c1cccc(-c2ccc(CNCCO)cc2)c1C
- IC50 [2]: 45.6 nM

Compound: Cc1c(NC(=O)c2ccc(CNCCO)cc2)cccc1-c1ccc2c(c1)OCCO2
- IC50 [2]: > 1000 nM

Compound: Cc1c(-c2ccc3c(c2)OC(=O)N(CCO)C3)cccc1-c1ccc2c(c1)OCCO2
- IC50 [1]: Not Active

Compound: Cc1c(C(=O)Nc2ccc(CNCCO)cc2)cccc1-c1ccc2c(c1)OCCO2
- IC50 [2]: > 1000 nM

Compound: Cc1c(NC(c2ccc(CNCCO)cc2)C(F)(F)F)cccc1-c1ccc2c(c1)OCCO2 (stereo not drawn)
- IC50 [2]: > 1000 nM

Compound: COc1cc(-c2cccc(-c3cccc(-c4ccc(CNCCO)c(OC)c4)c3C)c2C)ccc1CNCCO
- IC50 [2]: 48.6 nM
